For one assay, the target named is human DGKα (Homo sapiens, UniProt P23743). Briefly: DGKα Biochemical Activity Assay (ADP-Glo).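 Note: luminescent detection of ADP produced as DGKα phosphorylates DAG to phosphatidic acid, IC50 from four-parameter nonlinear curve fit.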 To be noted: recombinant DGKα 1 nM, 100 μM ATP, 18:1 DAG/POPS/octylglucoside micelles, 1 hour at 25° C.; geometric mean; read-out: HTBS DGKa 1X ATP KM IC50.
For assay [1], the system named is Jurkat NFκB-luciferase cells. Briefly: Jurkat NFκB-Luciferase Assay. Conditions: Homo sapiens. In kind it is cell-based. The protocol:
The day after, the excess antibody was washed out five times with 100 ul/well of assay medium (RPMI supplemented with 10% fetal bovine serum) using a Biotek EL406 instrument and leaving 20 ul of residual volume in each well. Jurkat NFκB-luciferase cells (Promega #) were harvested and diluted to 1 million cells/ml in assay medium. […] Thirty microliters of medium containing the Jurkat NFκB-luciferase cells were then dispensed using a Biotek MicroFlo instrument in each well of the compound-containing plate. […] Forty microliters of One-Glo Ex (Promega) was then added to the assay mixture and luciferase activity was read on a Envision plate reader 7 minutes later.

Setting [2] is: Jurkat NFκB-luciferase cells activated with anti-CD3 antibody (OKT3), 2.5 hrs at 37° C., geometric mean, read-out: DGK NFKb Luciferase EC50.
Where [3] appears, read: Jurkat, […], read-out: DGK NFKb Luciferase EC50 (nM).

As a reminder, the IC50 is the concentration at which inhibition is half-maximal. By EC50 is commonly meant the concentration at which the effect is half-maximal.

Where two headings read alike, the source gives them in different places.

human DGKα, sequence (P23743 whole entry): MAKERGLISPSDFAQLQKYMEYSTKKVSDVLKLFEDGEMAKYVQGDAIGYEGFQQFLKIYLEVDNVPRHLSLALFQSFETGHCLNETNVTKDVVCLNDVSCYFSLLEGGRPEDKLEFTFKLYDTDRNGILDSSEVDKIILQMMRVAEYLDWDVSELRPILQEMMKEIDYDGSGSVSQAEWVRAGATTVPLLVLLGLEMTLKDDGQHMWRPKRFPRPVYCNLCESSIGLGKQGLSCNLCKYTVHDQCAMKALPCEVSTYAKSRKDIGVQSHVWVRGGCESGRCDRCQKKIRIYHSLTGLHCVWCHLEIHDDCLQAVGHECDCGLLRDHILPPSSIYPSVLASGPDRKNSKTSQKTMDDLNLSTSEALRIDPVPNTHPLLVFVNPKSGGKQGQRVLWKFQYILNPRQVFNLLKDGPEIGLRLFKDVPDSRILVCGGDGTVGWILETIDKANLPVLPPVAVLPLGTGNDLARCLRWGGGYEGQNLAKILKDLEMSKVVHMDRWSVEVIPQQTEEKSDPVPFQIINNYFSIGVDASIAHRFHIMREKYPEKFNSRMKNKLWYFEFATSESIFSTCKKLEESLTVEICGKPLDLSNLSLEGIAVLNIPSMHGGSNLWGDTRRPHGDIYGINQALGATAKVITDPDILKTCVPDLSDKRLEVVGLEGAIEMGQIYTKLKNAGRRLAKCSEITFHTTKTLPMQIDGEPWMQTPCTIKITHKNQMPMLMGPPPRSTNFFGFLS

Turning to `Fc1ccc(Cl)c2c1c(N1CCOCc3c(C#CC4(C(F)F)CC4)cccc31)nc1nncn12` [Example 39, 1-(9-chloro-6-fluoro-[1,2,4]triazolo[4,3-a]quinazolin-5-yl)-6-[2-[1-(difluoromethyl)cyclopropyl]ethynyl]-3,5-dihydro-2H-4,1-benzoxazepine], the IC50 at human DGKα was 8.31 nM. Also, in assay [1] (setting [2]), the EC50 came to 2.18 nM.
With `CC(C)(O)C#Cc1cccc2c1COCCN2c1nc2nncn2c2c(Cl)ccc(F)c12` [Example 40, 4-[1-(9-chloro-6-fluoro-[1,2,4]triazolo[4,3-a]quinazolin-5-yl)-3,5-dihydro-2H-4,1-benzoxazepin-6-yl]-2-methyl-but-3-yn-2-ol], the IC50 on human DGKα amounted to 12.6 nM. Moreover, the EC50 in assay [1] (setting [3]) is 17.1 nM.
On to `CC(C)(C#Cc1cccc2c1COCCN2c1nc2nncn2c2c(Cl)ccc(F)c12)C(F)F` [Example 41, 1-(9-chloro-6-fluoro-[1,2,4]triazolo[4,3-a]quinazolin-5-yl)-6-(4,4-difluoro-3,3-dimethyl-but-1-ynyl)-3,5-dihydro-2H-4,1-benzoxazepine], for which, on human DGKα, the IC50 came out at 11 nM. Also, the EC50 in assay [1] (setting [2]) stood at 1.39 nM.
The matching figures for `Cc1nnc2nc(N(CC(F)F)c3ccnc(C#CC(C)(C)C(F)F)c3F)c3c(F)cccc3n12` [Example 42, N-[2-(4,4-difluoro-3,3-dimethyl-but-1-ynyl)-3-fluoro-4-pyridyl]-N-(2,2-difluoroethyl)-6-fluoro-1-methyl-[1,2,4]triazolo[4,3-a]quinazolin-5-amine]: 6.93 nM and 2.32 nM.
In the same order, the values of `Cc1nnc2nc(N(CC(F)F)c3ccnc(C#CC(C)(C)C(F)(F)F)c3F)c3c(F)cccc3n12` [Example 43, N-(2,2-difluoroethyl)-6-fluoro-N-[3-fluoro-2-(4,4,4-trifluoro-3,3-dimethyl-but-1-ynyl)-4-pyridyl]-1-methyl-[1,2,4]triazolo[4,3-a]quinazolin-5-amine] are 9.97 nM and 1.22 nM.
The matching figures for `Cc1nnc2nc(N(CC(F)F)c3ccnc(C#CC4(C(F)F)CC4)c3F)c3c(F)cccc3n12` [Example 44, N-(2,2-difluoroethyl)-N-[2-[2-[1-(difluoromethyl)cyclopropyl]ethynyl]-3-fluoro-4-pyridyl]-6-fluoro-1-methyl-[1,2,4]triazolo[4,3-a]quinazolin-5-amine]: 3.81 nM and 7.15 nM.
In the case of `Cc1nnc2nc(N(CC(F)F)c3ccnc(C#CC(C)(C)O)c3F)c3c(F)cccc3n12` [Example 45, 4-[4-[2,2-difluoroethyl-(6-fluoro-1-methyl-[1,2,4]triazolo[4,3-a]quinazolin-5-yl)amino]-3-fluoro-2-pyridyl]-2-methyl-but-3-yn-2-ol], the IC50 on human DGKα stood at 8.25 nM. Further, the EC50 in assay [1] (setting [3]) worked out at 329 nM.
Take `CC(C)(C#Cc1cc(F)cc(N(CC(F)F)c2nc3nncn3c3c(Cl)cc(F)cc23)c1)C(F)F` [Example 46, 9-chloro-N-[3-(4,4-difluoro-3,3-dimethyl-but-1-ynyl)-5-fluoro-phenyl]-N-(2,2-difluoroethyl)-7-fluoro-[1,2,4]triazolo[4,3-a]quinazolin-5-amine]: at human DGKα, the IC50 is 15.6 nM. In assay [1] (setting [2]), the EC50 was 1.75 nM.
In the same order, the values of `Fc1cc(C#CC2(C(F)F)CC2)cc(N(CC(F)F)c2nc3nncn3c3c(Cl)cc(F)cc23)c1` [Example 47, 9-chloro-N-(2,2-difluoroethyl)-N-[3-[2-[1-(difluoromethyl)cyclopropyl]ethynyl]-5-fluoro-phenyl]-7-fluoro-[1,2,4]triazolo[4,3-a]quinazolin-5-amine] are 18.8 nM and 3.92 nM.
`Fc1cc(C#CC2(C(F)(F)F)CC2)cc(N(CC(F)F)c2nc3nncn3c3c(Cl)cc(F)cc23)c1` [Example 48, 9-chloro-N-(2,2-difluoroethyl)-7-fluoro-N-[3-fluoro-5-[2-[1-(trifluoromethyl)cyclopropyl]ethynyl]phenyl]-[1,2,4]triazolo[4,3-a]quinazolin-5-amine]: the IC50 on human DGKα was found to be 5.73 nM. Moreover, the EC50 in assay [1] (setting [2]) is 3.02 nM.
Consider `CC1(C#Cc2cc(F)cc(N(CC(F)F)c3nc4nncn4c4c(Cl)cc(F)cc34)c2)CC1` [Example 49, 9-chloro-N-(2,2-difluoroethyl)-7-fluoro-N-[3-fluoro-5-[2-(1-methylcyclopropyl)ethynyl]phenyl]-[1,2,4]triazolo[4,3-a]quinazolin-5-amine], for which the half-maximal inhibitory concentration (IC50) at human DGKα is 12.4 nM. Moreover, the EC50 in assay [1] (setting [2]) is 1.36 nM.
Turning to `CC(C)(O)C#Cc1cc(F)cc(N(CC(F)F)c2nc3nncn3c3c(Cl)cc(F)cc23)c1` [Example 50, 4-[3-[(9-chloro-7-fluoro-[1,2,4]triazolo[4,3-a]quinazolin-5-yl)-(2,2-difluoroethyl)amino]-5-fluoro-phenyl]-2-methyl-but-3-yn-2-ol], on human DGKα, the 50% inhibitory concentration (IC50) is 11.9 nM. Also, in assay [1] (setting [3]), the EC50 stood at 16.8 nM.
For the compound `Cc1nnc2nc(N(CC(F)F)c3cccc(C#CC4(C(F)F)CC4)c3F)c3c(F)cccc3n12` [Example 51, N-(2,2-difluoroethyl)-N-[3-[2-[1-(difluoromethyl)cyclopropyl]ethynyl]-2-fluoro-phenyl]-6-fluoro-1-methyl-[1,2,4]triazolo[4,3-a]quinazolin-5-amine], on human DGKα, the IC50 turned out to be 5.01 nM. The 50% effective concentration (EC50) in assay [1] (setting [2]) is 1.92 nM.
With `Cc1nnc2nc(N(CC(F)F)c3cccc(C#CC4(C)CC4)c3F)c3c(F)cccc3n12` [Example 52, N-(2,2-difluoroethyl)-6-fluoro-N-[2-fluoro-3-[2-(1-methylcyclopropyl)ethynyl]phenyl]-1-methyl-[1,2,4]triazolo[4,3-a]quinazolin-5-amine], at human DGKα, the IC50 amounted to 7.98 nM. Moreover, the EC50 in assay [1] (setting [2]) is 0.583 nM.
The matching figures for `Cc1nnc2nc(N(CC(F)F)c3cccc(C#CC(C)(C)C(F)F)c3F)c3c(F)cccc3n12` [Example 53, N-[3-(4,4-difluoro-3,3-dimethyl-but-1-ynyl)-2-fluoro-phenyl]-N-(2,2-difluoroethyl)-6-fluoro-1-methyl-[1,2,4]triazolo[4,3-a]quinazolin-5-amine]: 18.6 nM and 0.792 nM.
For `Cc1nnc2nc(N(CC(F)F)c3cccc(C#CC4(C(F)(F)F)CC4)c3F)c3c(F)cccc3n12` [Example 54, N-(2,2-difluoroethyl)-6-fluoro-N-[2-fluoro-3-[2-[1-(trifluoromethyl)cyclopropyl]ethynyl]phenyl]-1-methyl-[1,2,4]triazolo[4,3-a]quinazolin-5-amine], the IC50 on human DGKα came to 32.8 nM. The EC50 in assay [1] (setting [2]) turned out to be 1.64 nM.
In the same order, the values of `Cc1nnc2nc(N(CC(F)F)c3cccc(C#CC(C)(C)C(F)F)c3F)c3cc(F)ccc3n12` [Example 55, N-[3-(4,4-difluoro-3,3-dimethyl-but-1-ynyl)-2-fluoro-phenyl]-N-(2,2-difluoroethyl)-7-fluoro-1-methyl-[1,2,4]triazolo[4,3-a]quinazolin-5-amine] are 21.6 nM and 3.42 nM.
In the same order, the values of `Cc1nnc2nc(N(CC(F)F)c3cccc(C#CC4(C)CC4)c3F)c3cc(F)ccc3n12` [Example 56, N-(2,2-difluoroethyl)-7-fluoro-N-[2-fluoro-3-[2-(1-methylcyclopropyl)ethynyl]phenyl]-1-methyl-[1,2,4]triazolo[4,3-a]quinazolin-5-amine] are 13.5 nM and 0.805 nM.

Source of the values: patent US11976072B2, “Diacylglycerol kinase modulating compounds” (priority 2021, dated 2024).
